Results taken from PubChem BioAssay (NCI).
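Assay format: 96-well plates, 48-hour exposure. TGI denotes the concentration required for complete inhibition of growth.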

Tests used:
Assay in all cases: NCI tumour cell line growth inhibition, 48 h
[1] = system: UACC-62 melanoma
[2] = system: EKVX NSCLC
[3] = system: XF 498 CNS
[4] = system: HL-60(TB) leukemia
[5] = system: SNB-75 CNS
[6] = system: ACHN renal
[7] = system: SN12C renal
[8] = system: OVCAR-4 ovarian
[9] = system: A498 renal
[10] = system: K-562 leukemia
[11] = system: RXF-631 renal
[12] = system: OVCAR-8 ovarian
[13] = system: SK-MEL-5 melanoma
[14] = system: HCT-15 colon
[15] = system: A549 NSCLC
[16] = system: U251 CNS
[17] = system: HOP-18 NSCLC
[18] = system: DMS 273 small cell lung
[19] = system: KM20L2 colon
[20] = system: M14 melanoma
[21] = system: NCI-H460 lung
[22] = system: SF-295 CNS
[23] = system: RXF 393 renal
[24] = system: OVCAR-3 ovarian
[25] = system: HCT-116 colon
[26] = system: UO-31 renal
[27] = system: KM12 colon
[28] = system: MALME-3M melanoma
[29] = system: HOP-62 NSCLC
[30] = system: HCC-2998 colon
[31] = system: SK-MEL-2 melanoma
[32] = system: SK-OV-3 ovarian
[33] = system: SR leukemia
[34] = system: NCI-H23 lung
[35] = system: LOX IMVI melanoma
[36] = system: HOP-92 NSCLC
[37] = system: HT29 colon
[38] = system: CCRF-CEM leukemia
[39] = system: OVCAR-5 ovarian
[40] = system: SF-268 CNS
[41] = system: SF-539 CNS
[42] = system: M19-MEL melanoma
[43] = system: DLD-1 colon
[44] = system: COLO 205 colon
[45] = system: MOLT-4 leukemia
[46] = system: NCI-H522 lung
[47] = system: TK-10 renal
[48] = system: DMS 114 small cell lung
[49] = system: UACC-257 melanoma
[50] = system: RPMI-8226 leukemia
[51] = system: NCI-H226 lung
[52] = system: SNB-78 CNS
[53] = system: 786-0 renal
[54] = system: IGROV1 ovarian

With `O=c1[nH]c2cc([N+](=O)[O-])ccc2nc1/C(=N/Nc1ccccc1)C(O)c1ccc(Cl)cc1Cl` (centres undefined) the TGI [1] was greater than 100 µM, the TGI [2] was greater than 100 µM and the TGI [3] was greater than 100 µM. It also gave a TGI [4] greater than 100 µM, a TGI [5] greater than 100 µM and a TGI [6] greater than 100 µM. For the same compound, the TGI [7] was greater than 100 µM, the TGI [8] was greater than 100 µM and the TGI [9] was greater than 100 µM. It also gave a TGI [10] greater than 100 µM, a TGI [11] greater than 100 µM and a TGI [12] greater than 100 µM. It also gave a TGI [13] greater than 100 µM, a TGI [14] greater than 100 µM and a TGI [15] greater than 100 µM. It also gave a TGI [16] greater than 100 µM, a TGI [17] greater than 100 µM and a TGI [18] greater than 100 µM. It also gave a TGI [19] greater than 100 µM, a TGI [20] greater than 100 µM and a TGI [21] greater than 100 µM. It also gave a TGI [22] greater than 100 µM, a TGI [23] greater than 100 µM and a TGI [24] greater than 100 µM. The TGI [25] was greater than 100 µM, the TGI [26] was greater than 100 µM and the TGI [27] was greater than 100 µM. It also gave a TGI [28] greater than 100 µM, a TGI [29] greater than 100 µM and a TGI [30] greater than 100 µM. For the same compound, the TGI [31] was greater than 100 µM, the TGI [32] was greater than 100 µM and the TGI [33] was 82.4 µM. It also gave a TGI [34] greater than 100 µM, a TGI [35] greater than 100 µM and a TGI [36] greater than 100 µM. For the same compound, the TGI [37] was greater than 100 µM, the TGI [38] was greater than 100 µM and the TGI [39] was greater than 100 µM. For the same compound, the TGI [40] was greater than 100 µM, the TGI [41] was greater than 100 µM and the TGI [42] was greater than 100 µM. For the same compound, the TGI [43] was greater than 100 µM, the TGI [44] was greater than 100 µM and the TGI [45] was greater than 100 µM. For the same compound, the TGI [46] was greater than 100 µM, the TGI [47] was greater than 100 µM and the TGI [48] was 44.7 µM. The TGI [49] was greater than 100 µM, the TGI [50] was greater than 100 µM and the TGI [51] was greater than 100 µM. It also gave a TGI [52] greater than 100 µM, a TGI [53] greater than 100 µM and a TGI [54] greater than 100 µM.
